Test results published in Sander's compilation of Henry's law constants (doi:10.1021/es00156a005).

Test: Henry solubility constant Hcp at 293 K (mol/(m3 Pa))
Settings: reference: Murphy et al. (1987)

| SMILES | Henry solubility constant Hcp at 293 K |
| --- | --- |
| Clc1ccc(-c2c(Cl)c(Cl)cc(Cl)c2Cl)c(Cl)c1Cl [2,2',3,3',4,5',6'-heptachlorobiphenyl] | 0.3 |
| Clc1cc(Cl)c(Cl)c(-c2ccc(Cl)c(Cl)c2Cl)c1 [2,2',3,3',4,5'-hexachlorobiphenyl] | 0.092 |
| Clc1cc(-c2c(Cl)ccc(Cl)c2Cl)c(Cl)c(Cl)c1Cl [2,2',3,3',4,5,6'-heptachlorobiphenyl] | 0.2 |
| Clc1cc(Cl)c(-c2c(Cl)ccc(Cl)c2Cl)c(Cl)c1Cl [2,2',3,3',4,6,6'-heptachlorobiphenyl] | 0.11 |
| Clc1cccc(-c2c(Cl)cc(Cl)c(Cl)c2Cl)c1Cl [2,2',3,3',4,6-hexachlorobiphenyl] | 0.15 |
| Clc1cccc(-c2ccc(Cl)c(Cl)c2Cl)c1Cl [2,2',3,3',4-pentachlorobiphenyl] | 0.084 |
| Clc1cc(Cl)c(Cl)c(-c2c(Cl)ccc(Cl)c2Cl)c1 [2,2',3,3',5,6'-hexachlorobiphenyl] | 0.07 |
| Clc1cc(Cl)c(Cl)c(-c2cccc(Cl)c2Cl)c1 [2,2',3,3',5-pentachlorobiphenyl] | 0.06 |
| Clc1ccc(Cl)c(-c2c(Cl)ccc(Cl)c2Cl)c1Cl [2,2',3,3',6,6'-hexachlorobiphenyl] | 0.044 |
| Clc1cccc(-c2c(Cl)ccc(Cl)c2Cl)c1Cl [2,2',3,3',6-pentachlorobiphenyl] | 0.057 |
| Clc1cccc(-c2cccc(Cl)c2Cl)c1Cl [2,2',3,3'-tetrachlorobiphenyl] | 0.061 |
| Clc1cc(Cl)c(-c2c(Cl)ccc(Cl)c2Cl)cc1Cl [2,2',3,4',5',6-hexachlorobiphenyl] | 0.067 |
| Clc1cc(Cl)c(-c2cccc(Cl)c2Cl)cc1Cl [2,2',3,4',5'-pentachlorobiphenyl] | 0.066 |
| Clc1cc(Cl)c(-c2c(Cl)c(Cl)cc(Cl)c2Cl)cc1Cl [2,2',3,4',5,5',6-heptachlorobiphenyl] | 0.12 |
| Clc1cc(Cl)c(Cl)c(-c2cc(Cl)c(Cl)cc2Cl)c1 [2,2',3,4',5,5'-hexachlorobiphenyl] | 0.11 |
| Clc1ccc(-c2c(Cl)ccc(Cl)c2Cl)c(Cl)c1 [2,2',3,4',6-pentachlorobiphenyl] | 0.036 |
| Clc1ccc(-c2cccc(Cl)c2Cl)c(Cl)c1 [2,2',3,4'-tetrachlorobiphenyl] | 0.05 |
| Clc1cc(Cl)c(-c2c(Cl)cc(Cl)c(Cl)c2Cl)cc1Cl [2,2',3,4,4',5',6-heptachlorobiphenyl] | 0.15 |
| Clc1cc(Cl)c(-c2ccc(Cl)c(Cl)c2Cl)cc1Cl [2,2',3,4,4',5'-hexachlorobiphenyl] | 0.13 |
| Clc1ccc(-c2cc(Cl)c(Cl)c(Cl)c2Cl)c(Cl)c1 [2,2',3,4,4',5-hexachlorobiphenyl] | 0.15 |
| Clc1ccc(-c2ccc(Cl)c(Cl)c2Cl)c(Cl)c1 [2,2',3,4,4'-pentachlorobiphenyl] | 0.06 |

| SMILES | Henry solubility constant Hcp at 293 K |
| --- | --- |
| Clc1ccc(Cl)c(-c2c(Cl)cc(Cl)c(Cl)c2Cl)c1 [2,2',3,4,5',6-hexachlorobiphenyl] | 0.07 |
| Clc1ccc(Cl)c(-c2cc(Cl)c(Cl)c(Cl)c2Cl)c1 [2,2',3,4,5,5'-hexachlorobiphenyl] | 0.1 |
| Clc1ccccc1-c1ccc(Cl)c(Cl)c1Cl [2,2',3,4-tetrachlorobiphenyl] | 0.049 |
| Clc1ccc(Cl)c(-c2c(Cl)ccc(Cl)c2Cl)c1 [2,2',3,5',6-pentachlorobiphenyl] | 0.05 |
| Clc1ccc(Cl)c(-c2cccc(Cl)c2Cl)c1 [2,2',3,5'-tetrachlorobiphenyl] | 0.052 |
| Clc1cccc(-c2c(Cl)cccc2Cl)c1Cl [2,2',3,6'-tetrachlorobiphenyl] | 0.038 |
| Clc1ccccc1-c1cccc(Cl)c1Cl [2,2',3-trichlorobiphenyl] | 0.041 |
| Clc1cc(Cl)c(-c2cc(Cl)c(Cl)cc2Cl)cc1Cl [2,2',4,4',5,5'-hexachlorobiphenyl] | 0.1 |
| Clc1ccc(-c2cc(Cl)c(Cl)cc2Cl)c(Cl)c1 [2,2',4,4',5-pentachlorobiphenyl] | 0.046 |
| Clc1ccc(-c2cc(Cl)ccc2Cl)c(Cl)c1 [2,2',4,5'-tetrachlorobiphenyl] | 0.036 |
| Clc1ccc(Cl)c(-c2cc(Cl)c(Cl)cc2Cl)c1 [2,2',4,5,5'-pentachlorobiphenyl] | 0.055 |
| Clc1cc(Cl)c(-c2ccccc2Cl)cc1Cl [2,2',4,5-tetrachlorobiphenyl] | 0.039 |
| Clc1ccc(-c2ccccc2Cl)c(Cl)c1 [2,2',4-trichlorobiphenyl] | 0.03 |
| Clc1ccc(Cl)c(-c2cc(Cl)ccc2Cl)c1 [2,2',5,5'-tetrachlorobiphenyl] | 0.041 |
| Clc1ccc(Cl)c(-c2ccccc2Cl)c1 [2,2',5-trichlorobiphenyl] | 0.033 |
| Clc1ccccc1-c1c(Cl)cccc1Cl [2,2',6-trichlorobiphenyl] | 0.033 |
| Clc1ccccc1-c1ccccc1Cl [2,2'-dichlorobiphenyl] | 0.033 |
| Clc1ccccc1-c1cc(Cl)c(Cl)c(Cl)c1 [2,3',4',5'-tetrachlorobiphenyl] | 0.077 |
| Clc1ccc(Cl)c(-c2cc(Cl)c(Cl)c(Cl)c2)c1 [2,3',4',5,5'-pentachlorobiphenyl] | 0.19 |
| Clc1ccc(Cl)c(-c2ccc(Cl)c(Cl)c2)c1 [2,3',4',5-tetrachlorobiphenyl] | 0.052 |
| Clc1ccc(-c2ccccc2Cl)cc1Cl [2,3',4'-trichlorobiphenyl] | 0.044 |

| SMILES | Henry solubility constant Hcp at 293 K |
| --- | --- |
| Clc1ccc(-c2cc(Cl)c(Cl)cc2Cl)cc1Cl [2,3',4,4',5-pentachlorobiphenyl] | 0.12 |
| Clc1ccc(-c2ccc(Cl)c(Cl)c2)c(Cl)c1 [2,3',4,4'-tetrachlorobiphenyl] | 0.049 |
| Clc1cccc(-c2ccc(Cl)cc2Cl)c1 [2,3',4-trichlorobiphenyl] | 0.024 |
| Clc1cccc(-c2cc(Cl)ccc2Cl)c1 [2,3',5-trichlorobiphenyl] | 0.029 |
| Clc1cccc(-c2c(Cl)cccc2Cl)c1 [2,3',6-trichlorobiphenyl] | 0.035 |
| Clc1cccc(-c2ccccc2Cl)c1 [2,3'-dichlorobiphenyl] | 0.032 |
| Clc1cc(-c2cccc(Cl)c2Cl)cc(Cl)c1Cl [2,3,3',4',5'-pentachlorobiphenyl] | 0.16 |
| Clc1cc(Cl)c(Cl)c(-c2ccc(Cl)c(Cl)c2)c1 [2,3,3',4',5-pentachlorobiphenyl] | 0.17 |
| Clc1ccc(-c2c(Cl)ccc(Cl)c2Cl)cc1Cl [2,3,3',4',6-pentachlorobiphenyl] | 0.093 |
| Clc1ccc(-c2cccc(Cl)c2Cl)cc1Cl [2,3,3',4'-tetrachlorobiphenyl] | 0.061 |
| Clc1ccc(-c2c(Cl)cc(Cl)c(Cl)c2Cl)cc1Cl [2,3,3',4,4',6-hexachlorobiphenyl] | 0.23 |
| Clc1ccc(-c2cc(Cl)cc(Cl)c2Cl)cc1 [2,3,4',5-tetrachlorobiphenyl] | 0.034 |
| Clc1ccc(-c2c(Cl)ccc(Cl)c2Cl)cc1 [2,3,4',6-tetrachlorobiphenyl] | 0.058 |
| Clc1ccc(-c2ccc(Cl)c(Cl)c2Cl)cc1 [2,3,4,4'-tetrachlorobiphenyl] | 0.061 |
| Clc1ccc(Cl)c(-c2ccccc2)c1Cl [2,3,6-trichlorobiphenyl] | 0.031 |
| Clc1ccc(-c2cc(Cl)ccc2Cl)cc1 [2,4',5-trichlorobiphenyl] | 0.037 |
| Clc1ccc(-c2ccccc2Cl)cc1 [2,4'-dichlorobiphenyl] | 0.035 |
| Clc1ccc(-c2ccccc2)c(Cl)c1 [2,4-dichlorobiphenyl] | 0.027 |
| Clc1ccc(-c2ccc(Cl)c(Cl)c2)cc1 [3,4,4'-trichlorobiphenyl] | 0.065 |
